pIC50: −log10 of the molar value.
Tested on: LG0703-F948-PDC complex spheroid viability
Test: Anticancer human tumor LG0703-F948-PDC patient-derived lung adenocarcinoma cell line growth inhibition
Conditions: for pIC50: curve of first compound; for viability, T/C: stronger effect = lower value
Excerpt: Multicellular complex tumor spheroid response to LSD1 Inhibitor Iadademstat in combination with a variety of drugs and investigational agents in selected tumor cell lines
The current study was undertaken to assess response to LSD1 inhibitors in combination with standard-of-care drugs and investigational agents in solid tumor complex spheroid models as well as in the K-562 leukemia. Complex spheroids include a stromal component modeled by human endothelial cells (HUVEC) and fibroblasts modeled by human mesenchymal stem cells (MSCs). The concentration ranges selected for each drug and investigational agent were based upon clinically achievable concentrations if the clinical Cmax of the agent was known.
Compounds. The drugs and investigational agents used in this study are listed on Table 1. All of the agents used, including staurosporine (NSC755774) and gemcitabine (NSC613327), were obtained from the Developmental Therapeutics Program, NCI. FDA-approved anticancer drugs are available from the NCI at http://dtp.nci.nih.gov/branches/dscb/oncology_drugset_explanation.html. Drugs and investigational agents were >95% pure by proton nuclear magnetic resonance (NMR) and liquid chromatography/mass spectrometry (LC/MS). Stock solutions were prepared at 400x in DMSO, stored at -70 degrees C, and diluted in fresh medium prior to their use. The final concentration of DMSO in cell culture wells never exceeded 0.25% (v/v). The FDA-approved anticancer drug set is available from the Developmental Therapeutics Program at https://dtp.cancer.gov/organization/dscb/obtaining/available_plates.htm. All drugs and investigational agents were tested over a range starting from a high concentration at or near the clinical Cmax and decreasing in half-log increments. If the clinical Cmax for an agent had not been determined, the highest concentration tested was 10 microM.
Cell Lines. The patient-derived cancer cell (PDC) lines: 292921-168-R-J2-PDC, K24384-001-R-PDC, and 521955-158-R2-J5-PDC pancreatic carcinomas, 556581-035-R-J1 ovarian carcinoma, 324938-238-R-J1-PDC, 855422-203-R-J1-PDC and 883617-216-R-J1-PDC urothelial bladder carcinomas, 743489-274-T-PDC renal cell carcinoma, 138582-R-J1 Merkel cell tumor, K60290-347-R-J1 and K57222-313-R-J1-PDC glioblastomas, 653999-131-R-J2-PDC, LG0703-F948-PDC, and 349418-098-R-PDC non-small cell lung carcinomas, 885512-296-R-J2-PDC, 171881-019-R-J1-PDC breast carcinomas and 186277-243-T-J2-PDC and 233499-124-R-J2-PDC colon carcinomas were obtained from the NCI Patient-Derived Models Repository (PDMR, https://pdmr.cancer.gov). The established cell lines NCI/ADR-RES (RRID:CVCL_14520 and OVCAR-5 (RRID:CVCL_1628) ovarian carcinomas, 786-O (RRID:CVCL_1051) and A498 (RRID:CVCL_A498) renal cell carcinoma, NCI-H211 (ATCC, cat. CRL-5824; RRID:CVCL_1529), NCI-H196 (ATCC, cat. CRL-5823, RRID:CVCL_1509), SW 1271 (ATCC, cat. CRL-2177, RRID:CVCL_1716) and NCI-H1876 (ATCC, cat. CRL-5902, RRID:CVCL_1503) small cell lung carcinomas, MDA-MB-231 (RRID:CVCL_0062) and MDA-MB-468 (RRID:CVCL_0419)breast carcinomas (10-12). Pooled donor human umbilical vein endothelial cells (HUVEC, Lonza, cat. CC-2519) and human mesenchymal stem cells (hMSC, Lonza, cat. PT-2501) were purchased from Lonza (Walkersville, MD).
Cell Culture. All cells were maintained in an incubator at 37 degrees C and 5% CO2 with 95% humidity. The PDC lines were cultured according to standard operating procedures established by the NCI PDMR (https://pdmr.cancer.gov). Briefly all PDCs were thawed and cultured in Matrigel-coated flasks prepared with a working solution of 1X Ham's F-12 nutrient mix, without supplementation (Invitrogen, Waltham, MA, cat. 11765054), 100 U/mL penicillin-streptomycin (Invitrogen, cat. 15140122), and 2.5% Matrigel (Corning Inc., Corning, NY, cat. 354248) for the first three passages. […]

[1] = second compound 0.1 µM, first compound 0.00949 µM
[2] = second compound 0.1 µM, first compound 0.03 µM
[3] = second compound 0.1 µM, first compound 0.0949 µM
[4] = second compound 0.1 µM, first compound 0.3 µM
[5] = second compound 0.1 µM, first compound 0.949 µM
[6] = second compound 0.1 µM, first compound 3 µM
[7] = second compound 0.316 µM, first compound 0.00949 µM
[8] = second compound 0.316 µM, first compound 0.03 µM
[9] = second compound 0.316 µM, first compound 0.0949 µM
[10] = second compound 0.316 µM, first compound 0.3 µM
[11] = second compound 0.316 µM, first compound 0.949 µM
[12] = second compound 0.316 µM, first compound 3 µM
[13] = second compound 1 µM, first compound 0.00949 µM
[14] = second compound 1 µM, first compound 0.03 µM
[15] = second compound 1 µM, first compound 0.0949 µM
[16] = second compound 1 µM, first compound 0.3 µM
[17] = second compound 1 µM, first compound 0.949 µM
[18] = second compound 1 µM, first compound 3 µM
[19] = second compound 3.16 µM, first compound 0.00949 µM
[20] = second compound 3.16 µM, first compound 0.03 µM
[21] = second compound 3.16 µM, first compound 0.0949 µM
[22] = second compound 3.16 µM, first compound 0.3 µM
[23] = second compound 3.16 µM, first compound 0.949 µM
[24] = second compound 3.16 µM, first compound 3 µM
[25] = second compound 10 µM, first compound 0.00949 µM
[26] = second compound 10 µM, first compound 0.03 µM
[27] = second compound 10 µM, first compound 0.0949 µM
[28] = second compound 10 µM, first compound 0.3 µM
[29] = second compound 10 µM, first compound 0.949 µM
[30] = second compound 10 µM, first compound 3 µM
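Also: spheroids exposed to agents for seven days before readout.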
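For viability, T/C in this document: 100% = DMSO vehicle control wells as normalization base.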

| SMILES | pIC50 (second compound 0.1 µM) | pIC50 (second compound 0.316 µM) | pIC50 (second compound 1 µM) | pIC50 (second compound 3.16 µM) | pIC50 (second compound 10 µM) | viability, T/C [1] [%] | viability, T/C [2] [%] | viability, T/C [3] [%] | viability, T/C [4] [%] | viability, T/C [5] [%] | viability, T/C [6] [%] | viability, T/C [7] [%] | viability, T/C [8] [%] | viability, T/C [9] [%] | viability, T/C [10] [%] | viability, T/C [11] [%] | viability, T/C [12] [%] | viability, T/C [13] [%] | viability, T/C [14] [%] | viability, T/C [15] [%] | further results |
| --- | --- | --- | --- | --- | --- | --- | --- | --- | --- | --- | --- | --- | --- | --- | --- | --- | --- | --- | --- | --- | --- |
| Nc1ccccc1NC(=O)c1ccc(CNC(=O)OCc2cccnc2)cc1 + NC1CC1c1ccc(-c2cccc(O)c2)cc1 | 7.02 | 7.04 | 7.10 | 7.00 | 7.20 | 96.4 | 85.7 | 49.5 | 14.9 | 1.36 | 0.66 | 86 | 74.1 | 50.6 | 7.98 | 0.56 | 0.86 | 80.9 | 76.7 | 45.1 | viability, T/C [16]: 8.53%; viability, T/C [17]: 0.73%; viability, T/C [18]: 0.8%; viability, T/C [19]: 87.2%; viability, T/C [20]: 80.4%; viability, T/C [21]: 52.2%; viability, T/C [22]: 6.55%; viability, T/C [23]: 0.23%; viability, T/C [24]: 0.32%; viability, T/C [25]: 95.3%; viability, T/C [26]: 68.7%; viability, T/C [27]: 42.5%; viability, T/C [28]: 7.86%; viability, T/C [29]: 0.67%; viability, T/C [30]: 0.19% |
| O=C(C=Cc1cccc(S(=O)(=O)Nc2ccccc2)c1)NO + NC1CC1c1ccc(-c2cccc(O)c2)cc1 | 7.21 | 7.15 | 7.15 | 7.13 | 7.02 | 113 | 74.8 | 35.9 | 8.61 | 1.29 | 0.28 | 113 | 83.5 | 39.5 | 8.31 | 1.3 | 1.01 | 107 | 93.9 | 34.8 | viability, T/C [16]: 7.01%; viability, T/C [17]: 1.57%; viability, T/C [18]: 0.1%; viability, T/C [19]: 92.3%; viability, T/C [20]: 80.8%; viability, T/C [21]: 42.2%; viability, T/C [22]: 6.95%; viability, T/C [23]: 1.69%; viability, T/C [24]: 0.15%; viability, T/C [25]: 90%; viability, T/C [26]: 86.7%; viability, T/C [27]: 50%; viability, T/C [28]: 7.51%; viability, T/C [29]: 1.22%; viability, T/C [30]: 1.1% |
